Results reported in US10799456B2, “Multiple drug lipid nanoparticle composition and related methods for extended drug levels in blood and lymph tissue” (priority 2015, dated 2020).

Tests used:
[1] = Octanol-buffer distribution coefficient (shake-flask); assay type: physicochemical; settings: room temperature
Protocol: The octanol-buffer drug distribution coefficient at room temperature was determined by a small-scale, shake-flask method described by Dittert L W, et al. Phase Solubility Technique in Studying the Formation of Complex Salts of Triamterene. Journal of pharmaceutical sciences. […] Briefly, phosphate-buffered saline (PBS) at pH 3, 5, and 7.4 was used as the aqueous phase. […] The mixture was centrifuged at 14,000 rpm (18,078 g) (Beckman Coulter™ Microfuge® 18 centrifuge, Beckman Coulter Inc., Brea, Calif.) to separate octanol and the aqueous phase. The drug concentration in the two phases was determined with high-performance liquid chromatography tandem mass spectrometry (HPLC/MS/MS). The distribution coefficient was calculated as the ratio of the drug concentration in the octanol phase to the drug concentration in the aqueous phase. Triplicate samples were used at each pH.

[2] = DPH fluorescence anisotropy, lipid phase transition temperature; assay type: physicochemical
Protocol: To evaluate the change in membrane fluidity due to drug insertion into the lipid membrane, 0.1% 1,6-diphenyl-1,3,5-hexatriene (DPH) was used as an intra-membrane probe.^18,20 Briefly, to incorporate DPH into the lipid membrane, 2 μL of 2 mM DPH in tetrahydrofuran was added to the lipid nanoparticle suspension with or without drug. The final preparation was incubated at 60° C. (above the 55° C. DSPC phase transition temperature) for 30 min, then slowly cooled to room temperature over 15 min. […] A water-jacketed cuvette holder connected to a circulating water bath (PolyScience, model 1162, Niles, Ill.) was used to control the temperature within the cuvette, which was measured by a digital thermometer. The cuvette was allowed to equilibrate for 10 min before taking each temperature reading. The fluorescence intensities, both parallel and perpendicular to the emission light, were measured continuously with a F-4500 fluorescence spectrometer (Hitachi, Minato-ku, Tokyo, Japan) set at kex/em=360/430 nm; both excitation and emission slits were 5 nm. Fluorescence anisotropy response, r, was calculated by the equation: […]
The fluorescence anisotropy response versus temperature curve was generated by non-linear regression using SigmaPlot software (11.0 version, Systat Software, Inc., San Jose, Calif.). […]

[3] = Particle size by photon correlation spectroscopy; assay type: physicochemical
Protocol: The mean particle size of lipid-drug nanoparticles and liposome control was determined by photon correlation spectroscopy (PCS) using a NICOMP™ 380ZLS instrument (NICOMP Particle Sizing Systems, Santa Barbara, Calif.). […] Samples were diluted with the same buffer to an identical final volume to analyze concentration effects. The light scattering data were analyzed based on intensity-weight NICOMP size distribution and expressed as a mean±SD.
Briefly, lipids and protease inhibitors were dissolved in chloroform:ethanol (3:1 v/v) and PMPA was added from a stock solution of 30 mg/ml in aqueous 150 mM NaHCO3. Solvent was removed by rotary evaporation and vacuum desiccation. The dry film was rehydrated to 200 mM lipid in 0.4% NaCl with 20 mM NaHCO3 buffer at 60° C. Particle size was reduced at 60° C. by bath sonication (laboratory scale) or high-pressure homogenization using an Emulsiflex-05 (Avestin, Ottawa, Canada) (clinical scale). LNPs were maintained at 60° C. to anneal for 30 min prior to cooling and stored at 4° C. Particle size was determined by photon correlation spectroscopy using a NICOMP 380 ZLS (Particle Sizing Systems, Santa Barbara, Calif.).

[4] = % Drug association to particles by assembly method; assay type: physicochemical
Description: Select one or two drugs hydrophilic and water soluble (Class 2) drugs listed in Table 19 (for example, tenofovir and/or emtricitabine and/or lamivudine). • 3. Select the excipient combination (for example, 9 parts DSPC and 1 part PEG-DSPE). • 4. Prepare a single-phase miscible solvent that enables full solubilization of the chosen water-insoluble Class 1 drugs and water soluble Class 2 drugs plus the excipients from step 3. Examples include CHCl3:Methanol:Water (65:35:4); CHCl3:Ethanol:Water (65:35:4); CHCl3:Propanol:Water (65:35:4); and CHCl3:Hexanol:Water (65:35:4). • 5. The components in Steps 1, 2 and 3 are solubilized with the miscible solvent in step 4. • 6. The drugs (steps 1 and 2) as well as excipients (step 3) and the miscible solvent (step 4) are dried under reduced pressure with assistance of a combination of heat, reduced pressure and/or aerosolization to provide for uniformity and efficiency of drying. • 7. The dehydrated composition is heated above gel-to-liquid phase transition temperature of the excipient mixture (e.g., 50° C.). • 8. A buffered saline solution is prepared and the temperature is equilibrated to the same temperature as dehydrated composition. • 9. The buffered saline solution and dehydrated composition are gradually combined and maintained at the defined (e.g., 50° C.) for 3 hr. • 10. The resulting hydrated multi-drug lipid nanoparticles are size-reduced by sheering or forcing through small orifice or pressurized filter apparatus while maintaining at the defined temperature (in liquid phase of lipidic excipients).

[5] = Drug incorporation efficiency into lipid-drug nanoparticles (dialysis); assay type: physicochemical; settings: for Incorporation efficiency (%): DSPC:DSPE-mPEG2000 8:2
Protocol: J Acquir Immune Defic Syndr. […] Journal of pharmaceutical sciences. […] The AAPS journal. […] Residual solvent was removed overnight by vacuum desiccation. The dried lipid-drug film was then rehydrated with 0.9% NaCl containing 20 mM sodium bicarbonate (pH 7.4). The lipid-drug samples were allowed to hydrate at 60° C. for 2 h. Then samples were sonicated (laboratory scale) or homogenized (preclinical scale) to achieve a homogenous suspension.
The incorporation efficiency was calculated as the ratio of the amount of incorporated drug over the total amount of drug loaded multiplied by 100%.

[6] = Tables 20 and 21; cited from earlier work

Substance: Darunavir [Darunavir (DRV)]
- Log D (measured) ([1]; pH 3, octanol/PBS): 2.98
- Log D (measured) ([1]; pH 5, octanol/PBS): 2.80
- Log D (measured) ([1]; pH 7.4, octanol/PBS): 2.84
- reduction of TC ([2]; lipid-to-drug 8:1, vs control LNPs): 1.6 °C
- phase transition temperature (TC) ([2]; lipid-to-drug molar ratio 8:1): 53.3 °C
- Particle size (nm) ([3]; lipid:drug 5:1 mol/mol): 33.6 ± 3.1 nm
- Particle size (nm) ([3]; lipid:drug 8:1 mol/mol): 35.6 ± 3.9 nm
- Particle size (nm) ([3]; lipid:drug 20:1 mol/mol): 35.6 ± 3.7 nm
- % Drug Association to Particles, LNPs from mixture of dual solvent method [4]: 97%
- Incorporation efficiency (%) ([5]; lipid:drug 5:1 mol/mol): 88.1 ± 3.8%
- Incorporation efficiency (%) ([5]; lipid:drug 5:1 mol/mol, listed as DRV): 88.1%
- Incorporation efficiency (%) ([5]; lipid:drug 8:1 mol/mol): 94.4 ± 2.8%
- Incorporation efficiency (%) ([5]; lipid:drug 8:1 mol/mol, listed as DRV): 94.4%
- Incorporation efficiency (%) ([5]; lipid:drug 20:1 mol/mol): 96.6 ± 4.8%
- Incorporation efficiency (%) ([5]; lipid:drug 20:1 mol/mol, listed as DRV): 96.6%
- drug incorporation efficiency ([5]; prepared at 0.5 mM lipid): 58%
- drug incorporation efficiency ([5]; prepared at 5 mM lipid): 95%
- Hydrophobicity (Log P) [6]: 1.8
